Measured values from patent US11938121B2, “Treatment of infections and biofilm formation using a cellulose synthase inhibitor” (Purdue Research Foundation, priority 2020, dated 2024).

Experiments:
Arabidopsis Col-0 [1] = experiment: Crystalline cellulose content measurement of cell wall; type: in vivo, Arabidopsis thaliana; conditions: 1 μM, 7-day-old dark-grown seedlings
Experimental: Arabidopsis Col-0 seeds were sown on growth medium supplemented with 0.1% DMSO, 1 μM ES20, or different concentrations of ES20 analogs. […] Cellulose extraction and measurement were performed as previously described (Huang et al., 2020).

GFP-CESA6c^P595S = target: T1, GFP-CESA6c^P595S (Arabidopsis thaliana, UniProt Q94JQ6, P595S); experiment: MST assay with GFP-CESA6c^P595S; type: binding
T1 construct: We purified AtCESA6 central cytoplasmic domain carrying missense mutation P595S (CESA6c^P595S); made in house; host or cells: E. coli (inferred from the wild-type CESA6c construct that served as template)
Description: (§1) To obtain the central cytosolic domain of AtCESA6 for the MST assay, we inserted the GFP coding sequence into the SacI and PstI restriction enzyme sites of the pRSF-Duet-1 vector (Huang et al., 2020). The GFP coding sequence was amplified from the pUBN-GFP-DEST vector. The sequence encoding the central cytosolic domain of CESA6 (CESA6c) was amplified from Col-0 cDNA and fused with GFP at the C-terminus. CESA6c construct was used as a template for creating CESA6c^P595S construct by site-directed mutagenesis. Protein purification was performed as previously described (Huang et al., 2020).
(§2) MST assays were carried out using a Monolith NT.115 (NanoTemper) machine at the Chemical Genomics Facility at Purdue University. […] The ES20-1 was dissolved in DMSO, and the final concentration of DMSO was 5% (vol/vol). MST standard capillaries were used to load the samples into the MST instrument. Triplicate reactions were performed for each test. The MST data were processed using MO. Affinity Analysis Version 2.3 software.

[2] = target: T2, YFP-AtCESA6 cellulose synthase complexes (CSCs) in root epidermal cells (Arabidopsis thaliana, UniProt Q94JQ6); conditions: Huang et al., 2020; cited from earlier work
T2 construct: expressed in transfected cells; host or cells: transgenic Arabidopsis thaliana YFP-AtCESA6 seedlings (total protein extract for DARTS; root epidermal cells for imaging)

rice (Oryza sativa) = experiment: Rice seedling root growth; type: in vivo; conditions: 20 μM, 6-day-old seedlings
Description: (§3) ES20 has broad spectrum inhibitory effect on the growth of both dicotyledonous and monocotyledonous plants (Huang and Zhang, Plant Signal Behav. 2020, 15, 1780039). We tested whether ES20-1 has stronger inhibitory effect on the growth of monocotyledon plants than ES20. We grew rice (Oryza sativa) and maize (Zea mays) seedlings on the same concentrations of ES20 and ES20-1 and compared their effects on growth.

[3] = test system: AtCESA6 carrying missense mutations in prc1-1; conditions: Huang et al., 2020; cited from earlier work
maize (Zea mays) = experiment: Maize seedling root growth; type: in vivo; conditions: 20 μM, 6-day-old seedlings
Description: as §3

[4] = target: T3, GFP-CESA6c (central cytosolic domain of AtCESA6) (Arabidopsis thaliana, UniProt Q94JQ6); experiment: MST assay with GFP-CESA6c; type: binding; conditions: 100 nM GFP-CESA6c
T3 construct: made in house; host or cells: E. coli
Description: as §1, §2

Komagataeibacter xylinus [5] = experiment: K. xylinus cell growth on HS solid medium; type: cell-based; conditions: 6 days
Description: Based on primary protein sequence analysis and a comparison of three-dimensional protein structures, the catalytic sites of cellulose synthases are highly conserved across kingdoms (Huang et al., 2020, Purushotham et al., 2020). The amino acids that are directly involved in glucan chain initiation, elongation, and translocation are conserved between plant and bacterial cellulose synthases (Huang et al., 2020). Based on the conservation of catalytic sites in cellulose synthases, we hypothesized that ES20 and ES20-1 would inhibit bacterial cellulose biosynthesis as well. We chose to test the effects of ES20 and ES20-1 on cell growth and cellulose production in Komagataeibacter xylinus (K. xylinus, previously known as Gluconacetobacter xylinus) because this bacterium produces abundant cellulose. We first tested whether ES20 and ES20-1 affect K. xylinus cell growth. We grew K. xylinus cells in liquid […] (HS) medium and then we inoculated 20 μL of series diluted culture to HS solid growth medium supplemented with DMSO (0.1%) or different concentrations of ES20 and ES20-1. […] We found ES20 and ES20-1 affect K. xylinus colony morphology as well. […] Wrinkles radiating structure is often observed in cellulose-producing bacteria strains and this structure is often affected when cellulose biosynthesis is disrupted.
Komagataeibacter xylinus (previously named Gluconacetobacter xylinus) ATCC strain 700178 was obtained from ATCC (Manassas, Va., USA) to evaluate cellulose production. HS (Hestrin and Schramm) medium was used for culture; HS liquid medium contains 2.0% glucose (w/v), 0.5% yeast extract (w/v), 0.5% peptone (w/v), 0.27% Na2HPO4 (w/v), and 0.15% citric acid (w/v), pH 5.0, and HS solid medium was solidified with 1.8% agar (w/v). To prepare the initial inoculation source, a single K. xylinus colony grown on HS solid medium was transferred to HS liquid medium and cultured at 26° C. for 5 days under static conditions. We used cells from the bottom of the liquid culture as the initial inoculation source to avoid biofilm aggregates at the air-liquid interface. To test the effect of ES20 and ES20-1 on the bacteria growth, initial inoculation source was series diluted and 20 μL culture from each diluted solution was dropped on HS solid medium supplemented with DMSO (0.1%) or different concentrations of ES20 and ES20-1 and cultured at 26° C. for 6 days after the dropped culture was completely dry. To test the effects of ES20 and ES20-1 on cellulose production, the prepared inoculation source was inoculated at a dilution ratio of 1:1000 dilution in HS liquid medium supplemented with 0.1% DMSO or 20 μM of ES20 or ES20-1. Static cultivation was carried out in a 26° C. incubator, and agitated cultivation was carried out at 26° C. with shaking at 220 rpm. […]

[6] = test system: AtCESA6 (cesa6 alleles es20r1-es20r15); conditions: Huang et al., 2020; cited from earlier work
Arabidopsis Col-0 [7] = conditions: 1 μM; cited from earlier work
Komagataeibacter xylinus [8] = experiment: K. xylinus cellulose production in liquid culture; type: cell-based; conditions: 20 μM
Description: We next grew K. xylinus cells in growth medium supplemented with DMSO, ES20, or ES20-1 under agitation. […] We also grew K. xylinus in liquid medium supplemented with DMSO, ES20, or ES20-1 under static cultivation conditions. Without agitation, pellicles containing cellulose often form at the air-liquid interface. […] To quantify the effects of ES20 and ES20-1 on cellulose production, we harvested the pellicles from these cultures and isolated cellulose from the pellicles.
Komagataeibacter xylinus (previously named Gluconacetobacter xylinus) ATCC strain 700178 was obtained from ATCC (Manassas, Va., USA) to evaluate cellulose production. HS (Hestrin and Schramm) medium was used for culture; HS liquid medium contains 2.0% glucose (w/v), 0.5% yeast extract (w/v), 0.5% peptone (w/v), 0.27% Na2HPO4 (w/v), and 0.15% citric acid (w/v), pH 5.0, and HS solid medium was solidified with 1.8% agar (w/v). To prepare the initial inoculation source, a single K. xylinus colony grown on HS solid medium was transferred to HS liquid medium and cultured at 26° C. for 5 days under static conditions. We used cells from the bottom of the liquid culture as the initial inoculation source to avoid biofilm aggregates at the air-liquid interface. To test the effect of ES20 and ES20-1 on the bacteria growth, initial inoculation source was series diluted and 20 μL culture from each diluted solution was dropped on HS solid medium supplemented with DMSO (0.1%) or different concentrations of ES20 and ES20-1 and cultured at 26° C. for 6 days after the dropped culture was completely dry. To test the effects of ES20 and ES20-1 on cellulose production, the prepared inoculation source was inoculated at a dilution ratio of 1:1000 dilution in HS liquid medium supplemented with 0.1% DMSO or 20 μM of ES20 or ES20-1. Static cultivation was carried out in a 26° C. incubator, and agitated cultivation was carried out at 26° C. with shaking at 220 rpm. To isolate cellulose from pellicles, the pellicles were removed from liquid culture, washed several times with deionized water, and soaked in 0.1 M NaOH at 80° C. for 2 h. The pellicles were washed several times with deionized water to completely remove the alkali. The purified cellulose was dried at 60° C. for ˜1 day until a constant dry mass was reached.

[9] = test system: Rhodobacter sphaeroidesin; experiment: Rhodobacter sphaeroidesin growth in overnight culture; type: cell-based, Rhodobacter sphaeroides; conditions: vs DMSO control media
Description: To test the effect of Endosidin20/Cellulosin in bacterial cell growth, we first grew Rhodobacter sphaeroidesin in the presence of Ensodin20/Cellulosin.

[10] = 5 days static cultivation, vs DMSO

**Q.** With `COc1ccc(C(=O)NC(=S)NNC(=O)c2ccccc2C)cc1` [ES20, Endosidin20] as the compound, how does the “crystalline cellulose content in hypocotyl cell wall” value (Arabidopsis Col-0 [1]; mean±SD, n=3) read?
**A.** 109 ± 4 µg/mg

**Q.** What about the “reduction of crystalline cellulose levels in the hypocotyl” value (Arabidopsis Col-0 [1]; vs DMSO) of the same compound?
**A.** approximately 35%

**Q.** And the “interaction with CESA6c^P595S” value (GFP-CESA6c^P595S)?
**A.** interacts

**Q.** What about the “effect on CSC motility, density and localization” value [2] of the same compound?
**A.** reduces the motility and density of CSCs at the PM and induces their accumulation at the SmaCCs and Golgi

**Q.** What about the “effect on delivery rate of CSCs to PM” value [2] of the same compound?
**A.** reduced the delivery rate of CSCs to PM

**Q.** And the “rice root growth inhibition” value (rice (Oryza sativa))?
**A.** could inhibit the root growth

**Q.** And the “sensitivity of transgenic plants with AtCESA6 catalytic site mutations to ES20” value [3]?
**A.** also had reduced sensitivity

**Q.** What about the “maize root growth inhibition” value (maize (Zea mays)) of the same compound?
**A.** could inhibit the root growth

**Q.** And the “interaction with CESA6c” value [4]?
**A.** interacted

**Q.** And the “K. xylinus cell growth inhibition” value (Komagataeibacter xylinus [5]; 20 μM and 50 μM)?
**A.** inhibit K. xylinus cell growth at both 20 μM and 50 μM concentrations

**Q.** And the “K. xylinus colony morphology (wrinkles radiating structures)” value (Komagataeibacter xylinus [5]; 20 μM)?
**A.** the wrinkles are not obvious

**Q.** What about the “sensitivity of es20r1-es20r15 mutants to ES20” value [6] of the same compound?
**A.** reduced sensitivity

**Q.** And the “inhibition of Arabidopsis thaliana root growth” value (Arabidopsis Col-0 [7])?
**A.** more than 50%

**Q.** What about the “size of cellulose clusters” value (Komagataeibacter xylinus [8]; 5 days agitated cultivation, vs DMSO) of the same compound?
**A.** smaller

**Q.** And the “dry mass of cellulose from pellicles” value (Komagataeibacter xylinus [8]; 5 days static cultivation, mean±SD, n=9)?
**A.** 268 ± 139 mg/L

**Q.** And the “decrease of dry mass of cellulose from pellicles” value (Komagataeibacter xylinus [8]; [10])?
**A.** ~45%

**Q.** What about the pellicle thickness (Komagataeibacter xylinus [8]; [10]) of the same compound?
**A.** pellicles in cultures containing DMSO are thicker

**Q.** And the “growth of Rhodobacter sphaeroidesin” value [9]?
**A.** significantly slower
